Where two headings read alike, the source gives them in different places.
How the values were obtained:
Plasma stability (mouse) = format: in vitro ADME; settings: pooled plasma
Procedure: (§1) Incubations of test compound (1 μM initial concentration, n=2) were carried out with pooled plasma or BSA (45 mg/mL in 0.1 M phosphate buffered saline pH 7.4). The incubations were performed at 37° C. Samples (50 μL) were obtained from the incubation at 0, 10, 30, 120, 240, 360 and 1440 min, and added to 150 μL of acetonitrile containing carbamazepine as analytical internal standard to terminate the reaction. Samples were centrifuged and the supernatant fractions analyzed using LC-MS/MS.
(§2) For all incubations, the instrument response (i.e. chromatographic peak area or peak height, normalized by internal standard), at each time-point were referenced to the zero time-point samples (as 100%) in order to determine the percentage of compound remaining at that time-point. Plots of the natural logarithm (Ln) of the percent of parent remaining for each compound, versus time, were used to determine the half-life in the incubation of interest.
(§3) Half-life values (t1/2) were calculated from the relationship: t1/2 (min)=−0.693/λ where λ was the slope of the Ln concentration versus time curve.

kinetic solubility assay = format: physicochemical
[1] = Liver microsomal stability (human); format: in vitro ADME
Procedure: Incubations of test compound (1 μM initial concentration, n=2) were carried out with pooled hepatic liver microsomes (0.25 mg protein/mL in 0.1 M phosphate buffer pH7.4). NADPH (1 mM) was added to initiate the reactions. The incubations were performed at 37° C. Samples (100 μL) were taken from the incubation at 0, 5, 10, 20 and 40 min and added to 100 μL of acetonitrile containing carbamazepine as analytical internal standard, to terminate the reaction. Samples were centrifuged and the supernatant fractions analyzed using LC-MS/MS.
as §2, §3
For incubations in hepatic liver microsomes, the in vitro intrinsic clearance, Clint (μL/min/mg microsomal protein), was calculated using the following formula:
Clint=(0.693/t1/2 microsomal)*(ml incubation/mg microsomal protein)*(mg microsomal protein/g liver)*(g liver/kg body weight)

human TG2 = molecular target: T1, human TG2 (Homo sapiens, UniProt P21980); assay: fluorescent screening assay for human TG2; format: biochemical
T1 sequence (P21980 1-687): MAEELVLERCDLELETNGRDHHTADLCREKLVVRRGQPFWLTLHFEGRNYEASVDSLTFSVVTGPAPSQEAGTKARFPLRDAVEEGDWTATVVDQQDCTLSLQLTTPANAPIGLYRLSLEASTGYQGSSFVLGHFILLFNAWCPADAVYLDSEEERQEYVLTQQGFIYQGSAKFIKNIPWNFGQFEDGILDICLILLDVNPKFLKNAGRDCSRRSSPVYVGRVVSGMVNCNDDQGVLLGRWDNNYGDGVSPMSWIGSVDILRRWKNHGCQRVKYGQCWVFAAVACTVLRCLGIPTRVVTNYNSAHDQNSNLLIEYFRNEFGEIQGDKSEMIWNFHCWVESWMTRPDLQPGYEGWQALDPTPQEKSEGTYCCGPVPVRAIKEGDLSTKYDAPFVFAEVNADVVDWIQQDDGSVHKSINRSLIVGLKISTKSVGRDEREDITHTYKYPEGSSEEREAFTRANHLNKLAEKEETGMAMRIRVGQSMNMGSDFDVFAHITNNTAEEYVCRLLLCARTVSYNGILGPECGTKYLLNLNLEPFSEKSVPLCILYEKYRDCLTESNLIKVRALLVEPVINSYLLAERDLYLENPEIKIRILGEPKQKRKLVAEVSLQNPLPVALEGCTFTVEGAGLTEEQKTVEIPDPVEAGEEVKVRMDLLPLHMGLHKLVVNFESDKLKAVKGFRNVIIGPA
Procedure: The fluorescent screening assay for human TG2 was performed as described herein: Assay conditions were 20 nM TG2, 8 μM N,N-dimethylated Casein (NMC) and 16 μM K×D (used for all transglutaminase assays) in 25 mM Hepes, pH 7.4, 250 mM NaCl, 2 mM MgCl2, 0.5 mM CaCl2, 0.2 mM DTT, 0.05% Pluronic F-127 at 37° C. A time point was taken with a microplate reader (Safire or Ultra, Tecan; ex: 350 nm, em: 535 nm) every 3 minutes for up to 2 hours and the initial linear reaction progress was used to determine the reaction velocity as a measure for enzyme activity. Assay conditions were identical for human TG6 and similar for human TG1 and mouse TG2 apart from enzyme concentration (mTG2 at 5 nM; TG1 at 10 nM) and CaCl2 concentration (0.2 mM for mTG2; 0.05 mM for TG1). Factor XIIIa was activated using 0.1 μg/μl thrombin (Sigma) in 35 mM Tris pH 8.0 for 20 min at 30° C. and the transamidation reaction was performed with 20 nM Factor XIIIa in 50 mM Tris pH 8.0, 1.25 mM CaCl2, 0.05% Pluronic, 0.2 mM DTT. TG3 was activated with 0.02 μg/μl thrombin under the same conditions as Factor XIIIa and assay conditions were 10 nM TG3 in 50 mM Hepes, pH 8, 20 mM CaCl2, 0.2 mM DTT, 0.05% Pluronic F-127.

Plasma stability (human) = format: in vitro ADME; settings: pooled plasma
Procedure: as §1, §2, §3

[2] = tested on: wild type MDCKII cell line; assay: Permeability in wild type MDCK monolayers; format: in vitro ADME; settings: MDCK study; in words
Procedure: (§4) The MDR1-MDCKII and wild type MDCKII cell lines were cultured in accordance with the guidelines provided by Solvo Biotechnology. Both wild-type MDCK and MDR1-MDCK cells were seeded at a cell density of 2.3×10^5 cells/well into 24-well Transwell plates and cultured for three days to form monolayers. Test compound was loaded into the donor compartments of the Transwell plate (24-well) bearing MDR1-MDCK or wild type MDCK monolayers. Test compound was added to either the apical or basolateral chambers of the Transwell plate assembly at a concentration of 10 μM in Hanks' Balanced Salt Solution containing 25 mM HEPES (pH 7.4). Lucifer Yellow was added to the apical buffer in all wells and its permeation monitored to assess integrity of the cell layer. As Lucifer Yellow (LY) cannot freely permeate lipophilic barriers, a high degree of LY transport indicates poor integrity of the cell layer and wells with LY permeability >100 nm/s are rejected.

[3] = Permeability in wild type MDCK monolayers; format: in vitro ADME; settings: dog; wild type MDCK, apical to basolateral, 10 μM, pH 7.4; read-out: MDCK-WT Papp A-B
Procedure: as §4

P-glycoprotein (P-gp) = molecular target: T2, P-glycoprotein (P-gp) (Homo sapiens, UniProt P08183); assay: Effective efflux ratio in MDCK-MDR1; format: in vitro ADME
T2 construct: host or cells: MDCKII (MDR1-MDCKII)
T2 sequence (P08183 whole entry): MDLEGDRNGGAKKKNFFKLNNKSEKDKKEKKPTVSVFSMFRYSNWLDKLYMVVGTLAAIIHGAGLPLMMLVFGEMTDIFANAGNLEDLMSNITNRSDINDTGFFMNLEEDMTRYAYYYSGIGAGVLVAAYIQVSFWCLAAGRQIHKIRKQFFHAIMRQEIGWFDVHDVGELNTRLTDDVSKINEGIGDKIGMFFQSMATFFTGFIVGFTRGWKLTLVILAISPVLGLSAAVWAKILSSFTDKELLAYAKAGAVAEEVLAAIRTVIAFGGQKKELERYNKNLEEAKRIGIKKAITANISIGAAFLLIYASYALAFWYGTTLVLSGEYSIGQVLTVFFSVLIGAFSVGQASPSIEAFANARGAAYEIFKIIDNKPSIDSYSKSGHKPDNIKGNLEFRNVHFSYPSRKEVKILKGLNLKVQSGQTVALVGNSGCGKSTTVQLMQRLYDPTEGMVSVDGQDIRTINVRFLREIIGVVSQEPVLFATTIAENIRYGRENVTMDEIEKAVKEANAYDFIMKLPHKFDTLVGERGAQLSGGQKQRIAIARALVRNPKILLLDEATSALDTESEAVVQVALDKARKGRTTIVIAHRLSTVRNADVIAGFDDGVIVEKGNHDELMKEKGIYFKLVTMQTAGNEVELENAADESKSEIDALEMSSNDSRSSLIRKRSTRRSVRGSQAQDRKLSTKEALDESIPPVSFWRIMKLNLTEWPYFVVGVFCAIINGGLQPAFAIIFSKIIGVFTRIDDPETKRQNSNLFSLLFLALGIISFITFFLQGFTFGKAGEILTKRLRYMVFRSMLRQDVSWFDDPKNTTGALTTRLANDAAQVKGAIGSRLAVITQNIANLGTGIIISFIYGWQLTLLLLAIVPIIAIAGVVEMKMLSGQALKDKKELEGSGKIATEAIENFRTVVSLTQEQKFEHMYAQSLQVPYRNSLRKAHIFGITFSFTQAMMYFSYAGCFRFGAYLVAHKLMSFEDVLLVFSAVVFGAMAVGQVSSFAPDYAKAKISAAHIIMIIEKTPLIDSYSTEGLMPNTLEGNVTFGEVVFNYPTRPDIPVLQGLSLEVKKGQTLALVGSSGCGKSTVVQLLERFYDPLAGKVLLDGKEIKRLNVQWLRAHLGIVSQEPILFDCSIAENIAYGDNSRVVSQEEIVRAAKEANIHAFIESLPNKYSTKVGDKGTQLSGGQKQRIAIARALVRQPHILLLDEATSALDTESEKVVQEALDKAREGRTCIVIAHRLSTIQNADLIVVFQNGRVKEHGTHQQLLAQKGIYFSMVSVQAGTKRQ
Procedure: as §4
P-glycoprotein (P-gp) is one of the main efflux transporters in brain; the potential for compound 1 and compound 2 to be effluxed by P-gp was assessed in an MDCK-MDR1 transfected cell line.

[4] = Table 7, 20 nM TG2, 37° C., read-out: IC50

IC50 (human TG2; [4])	Compound	also measured
1 to 100 µM	C=CC(=O)NCCCC[C@H](NC(=O)OCc1ccc(C(F)(F)F)cc1)C(=O)O [(2S)-6-(prop-2-enamido)-2-[({[4-(trifluoromethyl)phenyl]methoxy}carbonyl)amino]hexanoic acid]	–
1 to 100 µM	C=CC(=O)NCCCC[C@H](NC(=O)OCc1ccccc1)C(=O)O [(2S)-2-{[(benzyloxy)carbonyl]amino}-6-(prop-2-enamido)hexanoic acid]	–
1 to 100 µM	C=CC(=O)NCCCC[C@H](NC(=O)OCc1ccc(F)cc1Cl)C(=O)O [(2S)-2-({[(2-chloro-4-fluorophenyl)methoxy]carbonyl}amino)-6-(prop-2-enamido)hexanoic acid]	–
1 to 100 µM	C=CC(=O)NCCCC[C@H](NC(=O)OCc1c(F)cccc1F)C(=O)O [(2S)-2-({[(2,6-difluorophenyl)methoxy]carbonyl}amino)-6-(prop-2-enamido)hexanoic acid]	–
1 to 100 µM	C=CC(=O)NCCCC[C@H](NC(=O)OCc1ccccc1C(F)(F)F)C(=O)O [(2S)-6-(prop-2-enamido)-2-[({[2-(trifluoromethyl)phenyl]methoxy}carbonyl)amino]hexanoic acid]	–
1 to 100 µM	C=CC(=O)NCCCC[C@H](NC(=O)OCc1ccc(C)cc1)C(=O)O [(2S)-2-({[(4-methylphenyl)methoxy]carbonyl}amino)-6-(prop-2-enamido)hexanoic acid]	–
1 to 100 µM	C=CC(=O)NCCCC[C@H](NC(=O)OCc1cccc2ccccc12)C(=O)O [(2S)-2-{[(naphthalen-1-ylmethoxy)carbonyl]amino}-6-(prop-2-enamido)hexanoic acid]	–
1 to 100 µM	C=CC(=O)NCCCC[C@H](NC(=O)OCc1cccc(C(F)(F)F)c1)C(=O)O [(2S)-6-(prop-2-enamido)-2-[({[3-(trifluoromethyl)phenyl]methoxy}carbonyl)amino]hexanoic acid]	–

The remaining lines, values behind:

Compound	IC50 (human TG2; [4])	also measured
C=CC(=O)NCCCC[C@H](NC(=O)OCc1ccccc1)C(=O)N1CCN(c2ccccc2Cl)CC1 [compound 1, benzyl N-[(2S)-1-[4-(2-chlorophenyl)piperazin-1-yl]-1-oxo-6-(prop-2-enamido)hexan-2-yl]carbamate]	< 0.1 µM	half-life at 1 μM (Plasma stability (mouse); mouse plasma, 1 μM, 37° C., read-out: Mouse Plasma T1/2): > 24 h; half-life at 1 μM (Plasma stability (mouse); read-out: half-life in mouse plasma): > 24 h; solubility in a kinetic solubility assay (kinetic solubility assay; in words): good solubility; Aq. Sol. (kinetic solubility assay; kinetic solubility): 0.87 mg/mL; metabolic stability in liver microsomal stability testing ([1]; human, in words): poor; microsomal CLint at 1 μM ([1]; pooled liver microsomes, pH 7.4, human liver microsomes, 1 μM, 0.25 mg protein/mL, NADPH, read-out: hLM Clint): > 1390 µL/min/mg; IC50 (human TG2; Table 8, read-out: TG2 IC50): 0.014 µM; half-life at 1 μM (Plasma stability (human); human plasma, 1 μM, 37° C., read-out: Human Plasma T1/2): > 24 h; half-life at 1 μM (Plasma stability (human); read-out: half-life in human plasma): > 24 h; permeability [2]: good permeability; Papp A→B at 10 μM [3]: 14.2 ×10⁻⁶ cm/s; active efflux via P-gp (P-glycoprotein (P-gp); MDCK-MDR1 transfected cell line, in words): high active efflux; MDCK-MDR1 EER (P-glycoprotein (P-gp); effective efflux ratio, 10 μM): 118
C=CC(=O)NCCC1C[C@@H](C(=O)OC)N(C(=O)OC(C)(C)C)C1 (stereo partly drawn) [1-tert-butyl 2-methyl (2S)-4-[2-(prop-2-enamido)ethyl]pyrrolidine-1,2-dicarboxylate]	1 to 100 µM	–
C=CC(=O)NCCCC[C@H](NC(=O)OCc1ccccc1)C(=O)N1CCN(c2ccccn2)CC1 [benzyl N-[(2S)-1-oxo-6-(prop-2-enamido)-1-[4-(pyridin-2-yl)piperazin-1-yl]hexan-2-yl]carbamate]	0.1 to 1 µM	–
C=CC(=O)NCCCC[C@H](NC(=O)OCc1ccccc1)C(=O)N1CCC(c2ccccc2)CC1 [benzyl N-[(2S)-1-oxo-1-(4-phenylpiperidin-1-yl)-6-(prop-2-enamido)hexan-2-yl]carbamate]	< 0.1 µM	–
C=CC(=O)Nc1ccc(C[C@H](NC(=O)OCc2ccccc2)C(=O)O)cc1 [(2S)-2-{[(benzyloxy)carbonyl]amino}-3-[4-(prop-2-enamido)phenyl]propanoic acid]	1 to 100 µM	–
C=CC(=O)NCCCC[C@H](NC(=O)OCc1ccc(C(C)(C)C)cc1)C(=O)O [(2S)-2-({[(4-tert-butylphenyl)methoxy]carbonyl}amino)-6-(prop-2-enamido)hexanoic acid]	1 to 100 µM	–
C=CC(=O)N1CCC(CC(NC(=O)OC(C)(C)C)C(=O)O)CC1 (stereo not shown) [2-{[(tert-butoxy)carbonyl]amino}-3-[1-(prop-2-enoyl)piperidin-4-yl]propanoic acid]	1 to 100 µM	–
C=CC(=O)NCCCC[C@H](NC(=O)OCc1ccccc1)C(=O)N1CCN(c2ccc3ccccc3c2)CC1 [benzyl N-[(2S)-1-[4-(naphthalen-2-yl)piperazin-1-yl]-1-oxo-6-(prop-2-enamido)hexan-2-yl]carbamate]	0.1 to 1 µM	–
C=CC(=O)NCCCC[C@H](NC(=O)OCc1ccccc1)C(=O)N1CCCCC1 [benzyl N-[(2S)-1-oxo-1-(piperidin-1-yl)-6-(prop-2-enamido)hexan-2-yl]carbamate]	1 to 100 µM	–
C=CC(=O)NCCCC[C@H](NC(=O)OCc1ccccc1)C(=O)N1CCCCCC1 [benzyl N-[(2S)-1-(azepan-1-yl)-1-oxo-6-(prop-2-enamido)hexan-2-yl]carbamate]	0.1 to 1 µM	–

Reference: patent US20150232420A1, “TRANSGLUTAMINASE TG2 INHIBITORS, PHARMACEUTICAL COMPOSITIONS, AND METHODS OF USE THEREOF” (priority 2012, published 2015)
